Several values for one entry are separate records, joined by “and”; a condition that tells them apart may be missing. Identical values can stand only once.
Tests used:
[1] = Stability of the nanoparticulate suspensions over time (DLS); assay type: physicochemical; settings: suspension stored at 23° C.
Experimental: The mean particle sizes were measured using the “Dynamic Light Scattering” (DLS) method on a Malvern-Panalytical Nano-Sizer ZS® at 25° C. with a detection angle of 173° and a wavelength of 633 nm. The reported sizes are determined by the mean of three measurements. The measurements were carried out in polystyrene cuvettes.
A solution of conjugate in EtOH (2 mg for 0.5 mL) is added dropwise to vigorously stirred MiliQ water (1 mL). The formation of nanoparticles is observed in that the solution becomes partially cloudy. The suspension that is thus obtained is transferred to a flask and the EtOH is evaporated on a rotary evaporator (200 mbar for 5 min, then 130 mbar for 1 min at 40° C. and at 50 revolutions per minute).
The residual suspension is transferred to a vial and stored at 23° C.
The samples are prepared as follows: 40 μL of the residual suspension is dissolved in 500 μL of MiliQ H2O.
The stability of the suspensions was measured over time and the results are summarized in Tables 2 and 3 and in the graph of FIG. 1 and in the graph of FIG. 2.

[2] = Influence of phytolization on the stability of retinol, HPLC monitoring; assay type: physicochemical; settings: for A (mU), HPLC area, single measurement: 6 mg/L in H2O/iPrOH 1:1, 21° C., ambient light; for A (mU), HPLC area, Average: average of two measurements
Experimental: The HPLC analyzes were carried out with an “Ultimate 3000 system” chain, Dionex®, France on a C18 “Vintage series KR C18—5 μm-150×4.6 mm (Interchim®) column. The samples were detected by UV absorption at λ=325 nm.
Vitamin A (retinol) is known to be sensitive to oxygen and UV radiation. The phytolization process allows retinol to be stabilized.
The solutions of retinol and conjugate 9 in nanoparticulate form (6 mg/L in an H2O/iPrOH 1:1 mixture) were stored at 21° C. in ambient light and analyzed by HPLC over time (24 and 48 h).
The variation in the area of the compounds over time is shown over time (average of two measurements)—see Table 5 and the graph of FIG. 3.

C/C(=C\COC(=O)CCC(=O)OC1CCC(C(C)(C)C)CC1)CCC[C@H](C)CCC[C@H](C)CCCC(C)C (mixture of isomers) [Conjugate 7, Phytyl (4-tert-butyl cyclohexyl) succinate]
d (nm) ([1]; Time 1 h): 256.2 nm | d (nm) ([1]; Time 24 h): 269.7 nm | d (nm) ([1]; Time 168 h): 271.2 nm | d (nm) ([1]; Time 196 h): 269.6 nm

CC1=C(/C=C/C(C)=C/C=C/C(C)=C/COC(=O)CCC(=O)OC/C=C(\C)CCC[C@H](C)CCC[C@H](C)CCCC(C)C)C(C)(C)CCC1 [Conjugate 9, Phytyl Retinyl Succinate]
d (nm) ([1]; Time 1 h): 167.4 nm | d (nm) ([1]; Time 24 h): 165.2 nm | d (nm) ([1]; Time 168 h): 151.8 nm | d (nm) ([1]; Time 196 h): 131.3 nm | Variation of areas ([2]; t0): 0.0000 | A (mU), HPLC area, single measurement ([2]; t0): 4.1604 mU and 4.0495 mU | A (mU), HPLC area, Average ([2]; t0): 4.1050 mU | A (mU), HPLC area, single measurement ([2]; t24 h): 3.4609 mU and 3.3380 mU | A (mU), HPLC area, Average ([2]; t24 h): 3.3995 mU | Variation of areas ([2]; t24 h vs t0): 0.1719 | A (mU), HPLC area, single measurement ([2]; t48 h): 2.9536 mU and 2.9385 mU | A (mU), HPLC area, Average ([2]; t48 h): 2.9461 mU | Variation of areas ([2]; t48 h vs t0): 0.2823

CC1=C(/C=C/C(C)=C/C=C/C(C)=C/CO)C(C)(C)CCC1 [Retinol, retinol]
Breakdown rate of free retinol compared with conjugate 9 ([2]; free form vs nanoparticulate conjugate, 48 h): twice as quickly | Variation of areas ([2]; t0): 0.0000 | A (mU), HPLC area, single measurement ([2]; t0): 0.0502 mU and 0.0694 mU | A (mU), HPLC area, Average ([2]; t0): 0.0598 mU | A (mU), HPLC area, single measurement ([2]; t24 h): 0.0354 mU and 0.0360 mU | A (mU), HPLC area, Average ([2]; t24 h): 0.0357 mU | Variation of areas ([2]; t24 h vs t0): 0.4030 | A (mU), HPLC area, single measurement ([2]; t48 h): 0.0218 mU and 0.0273 mU | A (mU), HPLC area, Average ([2]; t48 h): 0.0246 mU | Variation of areas ([2]; t48 h vs t0): 0.5895

Phytyl Diclofenate [Conjugate 4]
d (nm) ([1]; Time 1 h): 270.0 nm | d (nm) ([1]; Time 24 h): 369.7 nm | d (nm) ([1]; Time 168 h): 502.4 nm | d (nm) ([1]; Time 196 h): 436.8 nm

Phytyl Ibuprofenate [Conjugate 3]
d (nm) ([1]; Time 1 h): 132.9 nm | d (nm) ([1]; Time 24 h): 154.5 nm | d (nm) ([1]; Time 168 h): 156.6 nm | d (nm) ([1]; Time 196 h): 164.1 nm

From patent US20210361771A1, “TERPENE COUPLING CONJUGATE” (LABORATOIRES ERIGER, priority 2020, published 2021)
